Experimental data reported in US20200182856A1, “Method of Evaluating Nutriture” (OTSUKA PHARMACEUTICAL CO., LTD., priority 2016, published 2020).

What was measured:
[1] = Breath test using 13C-amino acid in fed and fasted ZDF lean rats; conditions: 50 μmol/kg orally; for time for which the tendency (Δ^13C higher in fasted than in fed state) continued: expired air collected up to 60 minutes
Protocol: ZDF lean rats were placed in the fed/fasted state and the light-dark cycle as described above. 1-^13C-leucine, 1-^13C-alanine, or 1-^13C-glutamic acid (Cambridge Isotope Laboratories, Inc (Andover, Mass., USA)) dissolved in physiological saline was administered orally at 50 μmol/kg each (n=4 for each amino acid) at 13:00 of Day 2 in the fed state or 13:00 of Day 3 in the fasted state. Expired air samples were collected before the administration (0 minutes) and at several time points up to 60 minutes after the administration and Δ^13C (%) values were measured using a mass spectrometer for breath analysis (“ABCA” Sercon).

[2] = Breath test using 13C-alanine in ZDF fatty rats F1 and F2; conditions: fed, 50 μmol/kg orally, from the start of the administration
Protocol: ZDF fatty rats F1 and F2 mentioned above were placed in the light-dark cycle as described above. 1-^13C-alanine dissolved in physiological saline was administered orally at 50 μmol/kg. Expired air samples were collected before the administration (0 minutes) and at several time points up to 60 minutes after the administration and Δ^13C (%) values were measured using a mass spectrometer for breath analysis (“ABCA” Sercon).

[3] = ZDF fatty rats (diabetes model), fed, 50 μmol/kg orally, from the start of the administration to the end of the measurement (60 minutes)
Protocol: ZDF fatty rats F1, F2, and F3 mentioned above were placed in the light-dark cycle as described above. 1-^13C-glutamic acid dissolved in physiological saline was administered orally at 50 μmol/kg. Expired air samples were collected before the administration (0 minutes) and at several time points up to 60 minutes after the administration and Δ^13C (%) values were measured using a mass spectrometer for breath analysis (“ABCA” Sercon).

Row | Compound | time for which the tendency (Δ^13C higher in fasted than in fed state) continued [1] | time after the administration up to which Δ^13C was higher in F1 rat than in F2 rat [2] | Δ^13C (%) values of expired air, fasted state compared with fed state ([1]; 10 minutes after the administration, n=4 for each amino acid) | Δ^13C (%) values of expired air, F1 rat (suspected sarcopenia) compared with F2 and F3 rats [3]
1 | CC(C)C[C@H](N)[13C](=O)O [1-^13C-leucine] | about 45 minutes |  |  | 
2 | C[C@H](N)[13C](=O)O [1-^13C-alanine] | ~20 min | about 50 minutes |  | 
3 | N[C@@H](CCC(=O)O)[13C](=O)O [1-^13C-glutamic acid] | ~40 min |  | higher in the fasted state than in the fed state | higher in F1 rat than in F2 and F3 rats
